Data reported in patent US6358514B1, “Combination of a retinoid with a histidine derivative” (L'Oreal, priority 1998, dated 2002).

Format: physicochemical
Procedure: The stability of a retinoid is defined in accordance with the present invention by the percentage of the retinoid which remains in its original form after the composition comprising it has been stored for a given period and at a given temperature.
Test of stability of 0.3% all-trans retinol in a water/ethanol mixture stored at 45° C.
The conditions of the study are as follows: test compound at 0.1% (as weight/volume) in water/ethanol (40/60%) all-trans retinol sold by the company Fluka at 0.3% (as weight/volume) in water/ethanol (40/60%) aerobic medium with 55% by volume of air and 45% by volume of ethanol/water storage at 45° C. in amber-coloured bottles.
Degradation of the retinol under these conditions reaches 100% in 7 days of storage at 45° C. The storage conditions to which we subjected the compositions are particularly harsh.
The residual retinol content is monitored by HPLC (on a Spherisorb ODS1 C18 column, by elution with an H2O/CH3CO2H/CH3CO2NH4/acetonitrile mixture: 15/1/0.4/83.6) at 7 days (RT1) and 15 days (RT2) of storage at 45° C. in aerobic medium (55% by volume of air).

SMILES | Degradation of the retinol (7 days, 0.3 % (weight/volume)) [%] | stabilization of retinol compared with the histidine derivatives
CC1=C(/C=C/C(C)=C/C=C/C(C)=C/CO)C(C)(C)CCC1 [retinol, all-trans retinol] | 100 | 
NCCC(=O)N[C@@H](Cc1cnc[nH]1)C(=O)O [carnosine] |  | stabilizes retinol much less
